Laboratory results from publication PMC9112895, “Selective Inhibition of Plasmodium falciparum ATPase 6 by Artemisinins and Identification of New Classes of Inhibitors after Expression in Yeast” (Antimicrobial Agents and Chemotherapy, 2022).
pIC50: −log10 of the molar value.

Biological target: T1, S769N PfATP6 (Plasmodium falciparum, UniProt Q08853, S769N)
T1 construct: expressed in transfected cells; host or cells: Saccharomyces cerevisiae K667-derived strain
T1 sequence (Q08853 1-1228 S769N): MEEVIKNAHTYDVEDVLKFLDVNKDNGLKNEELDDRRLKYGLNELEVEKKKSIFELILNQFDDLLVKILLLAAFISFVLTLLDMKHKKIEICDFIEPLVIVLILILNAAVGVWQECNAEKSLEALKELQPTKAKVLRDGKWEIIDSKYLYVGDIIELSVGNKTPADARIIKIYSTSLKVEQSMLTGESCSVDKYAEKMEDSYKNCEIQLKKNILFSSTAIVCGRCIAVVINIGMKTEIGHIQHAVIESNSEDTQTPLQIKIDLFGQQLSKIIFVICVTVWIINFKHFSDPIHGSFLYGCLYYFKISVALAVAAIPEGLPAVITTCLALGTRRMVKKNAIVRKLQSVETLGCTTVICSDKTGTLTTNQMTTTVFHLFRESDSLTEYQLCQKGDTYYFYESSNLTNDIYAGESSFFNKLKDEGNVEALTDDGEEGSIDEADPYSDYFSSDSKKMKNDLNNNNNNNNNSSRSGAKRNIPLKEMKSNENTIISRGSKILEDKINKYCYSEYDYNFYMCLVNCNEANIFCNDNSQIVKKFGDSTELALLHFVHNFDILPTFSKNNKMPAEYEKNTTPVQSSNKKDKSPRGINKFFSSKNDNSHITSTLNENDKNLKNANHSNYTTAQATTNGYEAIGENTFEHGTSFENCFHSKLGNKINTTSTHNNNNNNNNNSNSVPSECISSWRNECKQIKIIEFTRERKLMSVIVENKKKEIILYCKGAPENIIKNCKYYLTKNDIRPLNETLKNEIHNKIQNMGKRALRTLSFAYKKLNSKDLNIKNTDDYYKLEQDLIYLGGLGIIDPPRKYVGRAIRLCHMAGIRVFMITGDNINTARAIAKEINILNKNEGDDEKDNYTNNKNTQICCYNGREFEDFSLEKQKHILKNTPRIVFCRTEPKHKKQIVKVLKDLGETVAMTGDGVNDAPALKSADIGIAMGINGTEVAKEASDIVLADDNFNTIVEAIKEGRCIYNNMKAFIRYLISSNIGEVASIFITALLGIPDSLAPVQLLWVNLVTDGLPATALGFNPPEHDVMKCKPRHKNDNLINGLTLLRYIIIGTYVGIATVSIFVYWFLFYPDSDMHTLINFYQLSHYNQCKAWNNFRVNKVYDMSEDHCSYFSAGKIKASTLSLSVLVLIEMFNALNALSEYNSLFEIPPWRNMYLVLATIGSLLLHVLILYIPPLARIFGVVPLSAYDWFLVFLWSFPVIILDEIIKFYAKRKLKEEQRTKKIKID
Experiment: Yeast whole-cell assay, PfATP6 S769N mutant
Format: cell-based
Details: read-out: IC50 (mean ± SD)
Method: Yeast transformations were performed using the method described by Gietz and Schiestl ([48]), and transformants were selected by an uracil auxotrophic marker. Transformations were confirmed by colony PCR. Both K667 and K667Δpdr5::HIS were transformed with the following plasmids: pUGpd plasmid as a vector-only control (derived from pRS316 [49]); br434 plasmid (derived from pRS316 [50]) containing the SERCA1a coding region from rabbit skeletal fast-twitch muscle (pbr434-SERCA1a); and pUGpd containing the yeast-optimized coding region of PfATP6 from Plasmodium falciparum (pUGpd-PfATP6). Site-directed mutagenesis was performed on the SERCA1a coding region to produce the mutation E255L in the protein. Mutations were also introduced into the PfATP6 coding region to produce mutations L263E, A623E, and S769N and the double mutation A623E/S769N ([13]).
The screening assay used here was developed from the protocol used by Pulcini et al. ([13]). […] The optimal calcium concentration was periodically monitored and, if necessary, adjusted using a calcium concentration range of 10 to 30 mM. […] The yeast growth was estimated from the absorbance at 620 nm in a Tecan plate reader. […] The data collected were analyzed using GraphPad Prism v9.0 (GraphPad software, San Diego, CA, U.S.A).

With `CC(=O)C1=C(O)[C@@H]2[C@H]3c4c[nH]c5cccc(c45)C[C@H]3C(C)(C)N2C1=O` [CPA, cyclopiazonic acid] as the compound, how does the pIC50 read?
Its pIC50 is 5.19.
